# System: C6 cells
# Assay: C6 SRB growth assay
# Format: cell-based, rat
# Details: Rattus norvegicus, C6; at 25 μM
row,SMILES,inhibition at 25 µM
1,"Cc1noc(C)c1C(=O)NCc1ccc(C(F)(F)F)cc1 [Compound P22, N-4-trifluoromethlybenzy 3,5-dimethylisoxazole-4-carboxamide]",~10%

# Same assay, conditions: Rattus norvegicus, C6; read-out: C6 SRB IC50
row,SMILES,IC50
1,"CC(O)=C(C#N)C(=O)NCc1ccc(C(F)(F)F)cc1 [Compound P24, 1-trifluorometnlybenzylaminocarbonly-1-cyano-2-hydroxy propene]",14 µM
2,"Cc1noc(C)c1C(=O)NCc1ccc(C(F)(F)F)cc1 [Compound P22, N-4-trifluoromethlybenzy 3,5-dimethylisoxazole-4-carboxamide]",> 25 µM
3,"N#CC(C(=O)N1CCOCC1)C(=S)Nc1ccccc1Cl (centres unmarked) [Compound P19, N-2-chlorophenyl (2-cyano-2-N-morpholinocarbonyl) thioacetamide]",> 50 µM
4,Cc1oncc1C(=O)NCc1ccc(C(F)(F)F)cc1 [Compound P23],18 µM

# Target: PDGFR (Homo sapiens, UniProt P09619)
# Assay: PDGF-stimulated receptor phosphorylation in U1242 cells, ELISA
# Format: cell-based
# Design: U1242 (PDGF-β receptor); host or cells: U1242 MG glioma cells
# Details: not given
# Method: For ELISA assays, cells were grown to 80-90% confluency in growth medium and seeded in 96-well tissue culture plates in 0.5% serum at 25,000 to 30,000 cells per well. After overnight incubation in 0.5% serum-containingmedium, cells were changed to serum-free medium and treated with test compound for 2 hr in a 5% CO2, 37° C. incubator. Cells were then stimulated with ligand for 5-10 min followed by lysis with HNTG (20 mM Hepes, 150 mM NaCl, 10% glycerol, 5 mM EDTA, 5 mM Na3 VO4 0.2% Triton X-100, and 2 mM NaPyr). […] Lysates were incubated with shaking for 1 hr at room temperature. The plates were washed with TBST four times and then incubated with polyclonol anti-phosphotyrosine antibody at room temperature for 30 min. Excess anti-phosphotyrosine antibody was removed by rinsing the plate with TBST four times. Goat anti-rabbit IgG antibody was added to the ELISA plate for 30 min at room temperature followed by rinsing with TBST four more times.
# U1242 MG cells were plated in 96-well plates at a concentration of 5×10^4 cells/well in cultured media containing 0.5% FBS. The cells were incubated for 24 hours. The cells were then treated with a particular compound for 2 hours followed by the addition of 100 ng/ml PDGF-BB and incubation for 10 minutes.
# Cells were lysed in 0.2 M Hepes, 0.15 M NaCl, 10% V/V glycerol, 0.04% Triton X-100, 5 mM EDTA, 5 MM Na^+ vanadate and […] Na^+ pyrophosphate. Cell lysates were then added to an ELISA plate coated with an anti-PDGF receptor antibody (Genzyme). ELISA plates were coated at […] of antibody/well in […] of PBS for 18 hours at 4° C. prior to the addition of the lysate.
# The lysate was incubated in the coated plates for 1 hour and then washed four times in TBST (35 mM Tris-HCl pH 7.0, 0.15 M NaCl, 0.1% Triton X-100). Anti-phosphotyrosine antibody ([…] in PBS) was added and the mixture was incubated for 30 minutes at room temperature. The wells were then washed four times in TBST, a secondary antibody conjugated to POD (TAGO) was added to each well, and the treated wells were incubated for 30 minutes at room temperature. The wells were then washed four times in TBST, ABTS/H2 O2 solution was added to each well and the wells were incubated for two minutes. Absorbance was then measured at 410 nm.
# Sequence of PDGFR (P09619 33-1106): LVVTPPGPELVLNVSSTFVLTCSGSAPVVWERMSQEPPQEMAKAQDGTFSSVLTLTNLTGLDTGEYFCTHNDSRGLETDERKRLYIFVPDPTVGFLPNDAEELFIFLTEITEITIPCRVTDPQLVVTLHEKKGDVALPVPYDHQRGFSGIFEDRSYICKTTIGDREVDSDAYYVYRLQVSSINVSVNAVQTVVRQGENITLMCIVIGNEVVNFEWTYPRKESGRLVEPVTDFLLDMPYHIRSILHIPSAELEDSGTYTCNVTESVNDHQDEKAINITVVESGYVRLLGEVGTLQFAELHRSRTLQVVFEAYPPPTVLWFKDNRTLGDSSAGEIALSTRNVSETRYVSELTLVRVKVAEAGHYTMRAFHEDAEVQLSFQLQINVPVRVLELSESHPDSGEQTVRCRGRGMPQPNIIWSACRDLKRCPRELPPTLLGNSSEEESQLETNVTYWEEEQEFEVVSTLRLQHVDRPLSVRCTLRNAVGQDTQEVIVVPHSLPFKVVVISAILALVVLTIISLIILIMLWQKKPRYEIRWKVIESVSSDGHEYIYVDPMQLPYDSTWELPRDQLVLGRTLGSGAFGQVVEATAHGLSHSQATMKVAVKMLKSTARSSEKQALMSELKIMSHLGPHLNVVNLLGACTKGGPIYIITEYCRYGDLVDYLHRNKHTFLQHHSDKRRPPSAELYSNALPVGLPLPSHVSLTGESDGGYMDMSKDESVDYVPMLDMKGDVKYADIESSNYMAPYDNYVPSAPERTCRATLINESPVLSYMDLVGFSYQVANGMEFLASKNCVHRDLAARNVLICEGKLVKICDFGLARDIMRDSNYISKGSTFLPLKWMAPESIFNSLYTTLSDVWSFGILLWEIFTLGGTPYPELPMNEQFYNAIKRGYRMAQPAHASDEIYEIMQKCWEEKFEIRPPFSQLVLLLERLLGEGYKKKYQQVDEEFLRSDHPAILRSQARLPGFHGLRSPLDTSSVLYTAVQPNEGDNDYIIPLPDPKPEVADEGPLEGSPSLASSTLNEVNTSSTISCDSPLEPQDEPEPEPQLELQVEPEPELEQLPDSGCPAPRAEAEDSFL
row,SMILES,IC50
1,N#CC(=Cc1c[nH]c2ccccc12)C(N)=C(C#N)C#N [Compound D12],60 µM

# Same assay, conditions: 100 ng/ml PDGF-BB; read-out: ELISA P-TYR U1242 IC50
row,IC50,SMILES
1,> 100 µM,Oc1cc2ncc(-c3ccccc3)nc2cc1O [Compound G20]
2,100 µM,COc1cc2nc(-c3ccccc3)cnc2cc1O [Compound G17]
3,90 µM,"CC(NC(=O)C(C#N)=Cc1ccc2[nH]ccc2c1)c1ccccc1 (single isomer, unassigned) [Compound I10]"
4,90 µM,Cc1ccc2ncc(-c3ccccc3)nc2c1 [Compound G19]
5,100 µM,c1csc(-c2cnc3ccccc3n2)c1 [Compound G15]

# Continued, compound first:
row,SMILES,IC50
1,"N#CC(C(=O)Nc1ccc(C(F)(F)F)cc1)=C(O)c1c(F)c(F)c(F)c(F)c1F [Compound B15, 2-Propenamide, 2-cyano-3-hydroxy-3-(pentafluorophenyl)-N-[(4-trifluoromethyl)phenyl]]",120 µM
2,O=c1c2ccccc2nc2n1CCOC2=Cc1cccc(O)c1 [Compound F12],70 µM
3,N#CC(=Cc1ccc(O)c(O)c1)c1[nH]nc(N)c1C#N [Compound C11],70 µM
4,O=c1c2ccccc2nc2n1CCOC2=Cc1ccc(O)c(O)c1 [Compound F11],100 µM
5,O=C(NN=Cc1ccc(O)c(O)c1)C(=O)Nc1cccc(O)c1 [Compound E11],90 µM
6,COc1ccccc1NC(=O)C(=O)NN=Cc1ccc(O)c(O)c1 [Compound E13],> 100 µM
7,N#CCCn1cc(C=C(C#N)C(=O)c2ccc(O)c(O)c2)c2ccccc21 [Compound D17],> 100 µM
8,O=C(NN=Cc1ccc(O)cc1)C(=O)Nc1cccc([N+](=O)[O-])c1 [Compound E16],125 µM
9,"CC1(C)C(C(O)=C(C#N)C(=O)Nc2ccc(C(F)(F)F)cc2)C1(C)C [Compound B14, 2-cyano-3-hydroxy-3-(2,2,3,3-tetramethylcyclopropyl)-propanol-4-(trifluoromethyl)anilide]",180 µM
10,CN(C)CCCn1cc(C=C(C#N)C(=O)c2ccc(O)c(O)c2)c2ccccc21 [Compound D16],50 µM
11,"CC(C)CC(O)=C(C#N)C(=O)Nc1ccc(C(F)(F)F)cc1 [Compound B18, 2-Hexeneamide, 2-cyano-3-hydroxy-5-methyl-N-[(4-trifluoromethyl)phenyl]]",160 µM
12,O=C(NN=Cc1ccccc1O)C(=O)Nc1cccc(O)c1 [Compound E12],180 µM
13,CC(O)=C(C#N)C(=O)Nc1ccc([N+](=O)[O-])cc1 [Compound B10],180 µM
14,CN(C)c1ccc(NC(=O)C(=O)NN=Cc2ccc(O)c(O)c2)cc1 [Compound E10],45 µM
15,"N#CC(C(=O)Nc1ccc(C(F)(F)F)cc1)=C(O)C1CCCCC1 [Compound B13, 2-Propenamide, 2-cyano-3-hydroxy-3-cyclohexyl-N-[(4-trifluoromethyl)phenyl]]",180 µM
16,"N#CC(C(=O)Nc1ccc(C(F)(F)F)cc1)=C(O)c1ccc(F)cc1 [Compound B12, 2-Propenamide, 2-cyano-3-hydroxy-3-(4-fluorophenyl)-N-[(4-trifluoromethyl)phenyl]]",100 µM
17,"N#CC(C(=O)Nc1ccc(C(F)(F)F)cc1)=C(O)Cc1ccccc1 [Compound B17, 2-Butenamide, 2-cyano-3-hydroxy-4-phenyl-N-[(4-trifluoromethyl)phenyl]]",125 µM
18,"N#CC(C(=O)Nc1ccc(C(F)(F)F)cc1)=C(O)C(c1ccccc1)c1ccccc1 [Compound B19, 2-Butenamide, 2-cyano-3-hydroxy-4,4-diphenyl-N-[(4-trifluoromethyl)phenyl]]",100 µM
